This passage reports IC50 results from patent US20180148418A1, “AMIDO-SUBSTITUTED CYCLOHEXANE DERIVATIVES” (Bayer Pharma Aktiengesellschaft, priority 2015, published 2018).

Bounds are passed on as bounds.

One assay addresses T1, TNKS2 (Homo sapiens, UniProt Q9H2K2).
T1 construct: purchased BPS Bioscience, San Diego, USA 80572 (TNKS2 Histone Ribosylation Assay Kit)
T1 sequence (Q9H2K2 1-1166): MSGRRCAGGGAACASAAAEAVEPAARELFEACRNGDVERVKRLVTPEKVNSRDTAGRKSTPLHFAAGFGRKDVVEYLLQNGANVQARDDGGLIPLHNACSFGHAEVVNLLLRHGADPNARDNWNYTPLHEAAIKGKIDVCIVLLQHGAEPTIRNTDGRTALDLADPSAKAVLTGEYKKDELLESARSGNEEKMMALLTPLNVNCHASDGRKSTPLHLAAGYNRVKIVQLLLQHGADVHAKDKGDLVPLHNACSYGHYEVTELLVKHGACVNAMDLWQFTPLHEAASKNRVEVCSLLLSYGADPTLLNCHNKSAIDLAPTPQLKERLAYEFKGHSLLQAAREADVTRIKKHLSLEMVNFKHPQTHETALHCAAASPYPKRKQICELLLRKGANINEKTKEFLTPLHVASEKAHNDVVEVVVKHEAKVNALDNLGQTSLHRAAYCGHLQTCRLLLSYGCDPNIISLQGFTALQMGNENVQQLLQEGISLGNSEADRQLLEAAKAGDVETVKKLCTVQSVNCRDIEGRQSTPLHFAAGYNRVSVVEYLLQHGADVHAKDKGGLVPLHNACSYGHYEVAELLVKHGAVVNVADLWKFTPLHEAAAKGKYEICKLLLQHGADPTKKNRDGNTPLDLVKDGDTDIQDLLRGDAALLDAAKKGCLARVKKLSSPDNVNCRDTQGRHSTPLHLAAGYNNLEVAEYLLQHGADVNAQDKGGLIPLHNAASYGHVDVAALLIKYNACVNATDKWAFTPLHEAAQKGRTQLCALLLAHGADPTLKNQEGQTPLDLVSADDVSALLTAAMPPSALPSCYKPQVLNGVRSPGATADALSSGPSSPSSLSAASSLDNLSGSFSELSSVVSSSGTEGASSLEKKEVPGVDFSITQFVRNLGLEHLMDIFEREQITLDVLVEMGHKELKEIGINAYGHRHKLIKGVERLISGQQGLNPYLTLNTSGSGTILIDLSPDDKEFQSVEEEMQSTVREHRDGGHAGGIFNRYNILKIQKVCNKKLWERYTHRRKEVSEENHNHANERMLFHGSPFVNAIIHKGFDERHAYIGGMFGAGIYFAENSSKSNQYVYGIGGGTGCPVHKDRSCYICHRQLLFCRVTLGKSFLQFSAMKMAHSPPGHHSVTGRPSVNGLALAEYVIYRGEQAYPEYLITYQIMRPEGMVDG
Put plainly: TNKS2 Assay B (auto-parsylation, [3H]-NAD+ SPA). Format: biochemical. Particulars: 6 nM TNKS2, auto-parsylation, over night at room temperature.

The subject of assay [1] is wildtype Wnt signaling cascade. Put plainly: HEK293 TOP assay (Super TopFlash luciferase reporter, Wnt-3a stimulated). The class given is cell-based. Particulars: Homo sapiens, HEK293, 16 h, HEK293 TOP reporter cells, Wnt3a at EC50, 16 hours. In short, it runs like this: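 HEK293 cells stably carrying Super TopFlash (TOP) run in parallel with FOP cells, 10000/well plated 24 h ahead, stimulated with recombinant human Wnt-3a. Compounds tested 50 μM to 15 nM in 3.16-fold steps in CAFTY buffer pH 7.4 with 2 mM Ca^2+ and 0.01% BSA; luciferase read-out.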

In assay [2] the test system is HEK293 cells cotransfected with the FOP control vector. The assay is described as follows: HEK293 FOP assay (control reporter with non-functional TCF elements). Format: cell-based. To be noted: Homo sapiens, 16 hours. The gist of the method: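 Stable HEK293 line carrying FOP control reporter (randomized non-functional TCF sites, with pcDNA3), Geneticin-selected, plated 24 h before assay. Stimulated with recombinant human Wnt-3a (2500-5 ng/ml) and compounds 50 μM–15 nM (3.16-fold steps) in CAFTY buffer pH 7.4 with 2 mM Ca2+, 0.01% BSA, run parallel to TOP line.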

As for `O=C(N[C@H]1CC[C@@]2(CCN(c3cccc(Cl)c3)C2=O)CC1)c1[nH]cnc1C(=O)N1CCOCC1` [Example 286, N-[(trans)-2-(3-chlorophenyl)-1-oxo-2-azaspiro[4.5]dec-8-yl]-4-(morpholin-4-ylcarbonyl)-1H-imidazole-5-carboxamide], the IC50 (as a rule, the concentration needed to halve the response being measured) at TNKS2 was 4400 nM; in assay [1] it was 28 nM; in assay [2], at least 50000 nM.

`CNC(=O)c1nc[nH]c1C(=O)N[C@H]1CC[C@@]2(CCN(c3cc(C)c(F)cc3Cl)C2=O)CC1` [Example 288, N^5-[(trans)-2-(2-chloro-4-fluoro-5-methylphenyl)-1-oxo-2-azaspiro[4.5]dec-8-yl]-N^4-methyl-1H-imidazole-4,5-dicarboxamide]: the IC50 against TNKS2 turned out to be 2.8 nM; in assay [1] it was 1.4 nM; in assay [2], 20000 nM.

As to `CCNC(=O)c1nc[nH]c1C(=O)N[C@H]1CC[C@@]2(CCN(c3cc(C)c(F)cc3Cl)C2=O)CC1` [Example 289, N^5-[(trans)-2-(2-chloro-4-fluoro-5-methylphenyl)-1-oxo-2-azaspiro[4.5]dec-8-yl]-N^4-ethyl-1H-imidazole-4,5-dicarboxamide], the half-inhibitory concentration (IC50) on TNKS2 was determined as 2.9 nM; in assay [1], 1.8 nM; in assay [2], 16000 nM.

Turning to `Cc1cc(N2CC[C@]3(CC[C@@H](NC(=O)c4[nH]cnc4C(=O)NCCN4CCC(C)CC4)CC3)C2=O)c(Cl)cc1F` [Example 290, N^5-[(trans)-2-(2-chloro-4-fluoro-5-methylphenyl)-1-oxo-2-azaspiro[4.5]dec-8-yl]-N^4-[2-(4-methylpiperidin-1-yl)ethyl]-1H-imidazole-4,5-dicarboxamide], the IC50 against TNKS2 was 1.7 nM; in assay [1], 4.7 nM; in assay [2] it was 16000 nM.

`Cc1cc(N2CC[C@]3(CC[C@@H](NC(=O)c4[nH]cnc4C(=O)NCC(F)(F)F)CC3)C2=O)c(Cl)cc1F` [Example 297, N^5-[(trans)-2-(2-chloro-4-fluoro-5-methylphenyl)-1-oxo-2-azaspiro[4.5]dec-8-yl]-N^4-(2,2,2-trifluoroethyl)-1H-imidazole-4,5-dicarboxamide]: the results for the IC50 (at TNKS2; in assay [1]; in assay [2]) were 7.6 nM, 6.9 nM and 9300 nM, respectively.

For `O=C(N[C@H]1CC[C@@]2(CCN(c3cc(F)c(F)cc3Cl)C2=O)CC1)c1cnc2cccnn12` [Example 298, N-[(trans)-2-(2-chloro-4,5-difluorophenyl)-1-oxo-2-azaspiro[4.5]dec-8-yl]imidazo[1,2-b]pyridazine-3-carboxamide], the values for the IC50 (on TNKS2; in assay [1]; in assay [2]) were 2 nM, 4.9 nM and at least 50000 nM, respectively.

Turning to `Cc1cc(C)n2ncc(C(=O)N[C@H]3CC[C@@]4(CCN(c5cc(F)c(F)cc5Cl)C4=O)CC3)c2n1` [Example 299, N-[(trans)-2-(2-chloro-4,5-difluorophenyl)-1-oxo-2-azaspiro[4.5]dec-8-yl]-5,7-dimethylpyrazolo[1,5-a]pyrimidine-3-carboxamide], the IC50 at TNKS2 is 2 nM; in assay [1], 0.9 nM; in assay [2] it was at least 50000 nM.

For the compound `Cc1cc(N2CCC[C@]3(CC[C@@H](NC(=O)c4cnn5cccnc45)CC3)C2=O)c(Cl)cc1F` [Example 300, N-[(trans)-2-(2-chloro-4-fluoro-5-methylphenyl)-1-oxo-2-azaspiro[5.5]undec-9-yl]pyrazolo[1,5-a]pyrimidine-3-carboxamide], the IC50 against TNKS2 was 45 nM; in assay [1] it was 18 nM; in assay [2], at least 500 nM.

With `Cc1cc(N2CCC[C@]3(CC[C@@H](NC(=O)c4cnc5cccnn45)CC3)C2=O)c(Cl)cc1F` [Example 301, N-[(trans)-2-(2-chloro-4-fluoro-5-methylphenyl)-1-oxo-2-azaspiro[5.5]undec-9-yl]imidazo[1,2-b]pyridazine-3-carboxamide], the IC50 at TNKS2 was 80 nM; in assay [1], 28 nM; in assay [2], at least 500 nM.
